Where two headings read alike, the source gives them in different places.
Experiments:
[1] = tested on: 20-HETE formation (CYP4) in HLM; assay: Inhibition of 20-HETE formation at 250 or 500 nM in HLM microsomal incubations; type: biochemical, human; conditions: HLM 300 μg/ml, AA 100 μM, 20 min; for HLM % inh. @ 500 nM: 500 nM compound; for HLM % inh. @ 250 nM: 250 nM compound
In short: (§1)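 20-HETE formation, measured by UPLC-MS/MS after ether extraction, is reported as percentage of vehicle control, triplicates. Incubations: 300 μg/ml microsomal protein or 25 pmol/mL rCYP4F2, AA 100 μM, NADPH 1 mM, 20 min at 37° C.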

[2] = tested on: 20-HETE formation (CYP4) in RKM; assay: Inhibition of 20-HETE formation at 250 or 500 nM in RKM microsomal incubations; type: biochemical, rat; conditions: RKM 300 μg/ml; for RKM % inh. @ 500 nM: 500 nM compound; for RKM % inh. @ 250 nM: 250 nM compound
Experimental: To screen the inhibitory effects against 20-HETE formation, compounds were screened in HLM, RLM, RKM and rCYP4F2 microsomal incubations. Compounds dissolved in either 100% methanol or 100% DMSO to yield 10 mM stock solution. Microsomal incubations containing HLM, RLM, RKM (300 μg/ml) or rCYP4F2 (25 pmol/mL), AA (100 μM), NADPH (1 mM) treated with test compounds at various concentrations (500 nM or 250 nM) in a 1 ml total volume in incubation buffer (0.12 M potassium phosphate buffer containing 5 mM magnesium chloride). Reaction was started by adding NADPH to the incubates and was carried out at 37° C. in a shaking water bath for 20 min. Reaction was stopped by placing tubes on ice, followed by adding 125 μl 20-HETE-d6 as internal standard to each sample. Microsomal incubations were extracted with 3 ml ethyl ether twice, dried down under nitrogen gas and reconstituted in 125 μl 80:20 methanol:deionized H2O for analysis. 20-HETE formation was quantified using a validated UPLC-MS/MS assay and normalized by vehicle group. Each compound had three replications (n=3). Vehicle group was used as control to calculate percentage of 20-HETE formation rate. HET0016 (250 nM) was used as positive control. Incubates without NADPH group served as the negative control. An Acquity ultra performance LC autosampler (Waters, Milford, MA) was used to isolate 20-HETE on an UPLC BEH C18, 1.7 μm (2.1×100 mm) reversed-phase column (Waters, Milford, MA) protected by a guard column (2.1×5 mm; Waters, Milford, MA) of the same packing material. Column temperature was maintained at 55° C. Mobile phases consisted of 0.005% acetic acid, 5% acetonitrile in deionized water (A) and 0.005% acetic acid in acetonitrile (B). The flow rate for mobile phases is 0.5 ml/min. The initial mixture of mobile phase was 65:35 of A and B. Mobile phase B increased at 0.4 minutes after injection from 35% to 70% in a linear gradient over 4 minutes, and again increased to 95% over 0.5 minutes where it remained for 0.3 minutes. This was followed by a linear return to initial conditions over 0.1 minutes with a 1.5 minute pre-equilibration period prior to the next sample run. Total run time was 6.4 minutes for each injection. Injection volumes were 7.5 μl. Mass spectrometric analysis was carried out using a TSQ Quantum Ultra (Thermo Fisher Scientific, San Jose, CA) triple quadrupole mass spectrometer using heated electrospray ionization (HESI). Mass spectrometer was operated in negative selective reaction monitoring (SRM) mode with unit resolutions at both Q1 and Q3 set at 0.70 Da full width at half maximum. Scan time was set at 0.01 s and collision gas pressure was 1.3 mTorr. Quantitation of 20-HETE by SRM was performed by monitoring the m/z. Analytical data was acquired and analyzed using Xcaliber 3.0 data system (ThermoFinnigan, San Jose, CA).

[3] = target: T1, rCYP4F2 (Homo sapiens, UniProt P78329); assay: Inhibition of 20-HETE formation at 250 or 500 nM in rCYP4F2 incubations; type: biochemical; conditions: rCYP4F2 25 pmol/mL; for inhibition at 0.5 µM: 500 nM compound, read-out: rCYP4F2 % inh. @ 500 nM; for inhibition at 0.25 µM: 250 nM compound, read-out: rCYP4F2 % inh. @ 250 nM
T1 sequence (P78329 5-520): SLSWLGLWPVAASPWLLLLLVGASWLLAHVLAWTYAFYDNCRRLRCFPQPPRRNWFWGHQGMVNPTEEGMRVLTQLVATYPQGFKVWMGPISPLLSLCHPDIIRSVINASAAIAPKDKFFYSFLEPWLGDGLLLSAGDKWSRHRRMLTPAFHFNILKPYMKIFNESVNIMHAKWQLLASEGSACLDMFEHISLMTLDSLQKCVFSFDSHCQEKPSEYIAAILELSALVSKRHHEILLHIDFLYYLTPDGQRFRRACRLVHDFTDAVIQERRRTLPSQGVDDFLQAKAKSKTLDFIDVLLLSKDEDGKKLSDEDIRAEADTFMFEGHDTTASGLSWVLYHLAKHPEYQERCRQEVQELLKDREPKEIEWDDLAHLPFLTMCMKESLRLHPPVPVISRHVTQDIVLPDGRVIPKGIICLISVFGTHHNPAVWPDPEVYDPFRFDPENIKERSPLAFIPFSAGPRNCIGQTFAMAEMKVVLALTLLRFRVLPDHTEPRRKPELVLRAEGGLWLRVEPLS
In short: as §1

[4] = tested on: 20-HETE formation (CYP4) in RLM; assay: Inhibition of 20-HETE formation at 250 or 500 nM in RLM microsomal incubations; type: biochemical, rat; conditions: RLM 300 μg/ml; for RLM % inh. @ 500 nM: 500 nM compound; for RLM % inh. @ 250 nM: 250 nM compound
In short: as §1

[5] = Turbidometric solubility determination; type: physicochemical; conditions: PBS with 1% DMSO, aqueous buffer, kinetic from dmso stock, room temperature
In short: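 Kinetic turbidimetric solubility: DMSO stocks diluted 1:100 into PBS in triplicate to give 0–600 μM in 1% DMSO. Shaken 2 h at room temperature, then OD620 read. Solubility limit taken as the concentration giving a statistically significant absorbance rise above background.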

COc1ccc(C2CCN(c3ccn[nH]3)CC2)cn1 [Compound 31, 5-(1-(1H-Pyrazol-5-yl)piperidin-4-yl)-2-methoxypyridine]
HLM % inh. @ 500 nM [1]: 35.00%
RKM % inh. @ 500 nM [2]: 9.00%
inhibition at 0.5 µM [3]: 44%
RLM % inh. @ 500 nM [4]: 0.00%
solubility at 2 h ([5]; OD620, read-out: Max Solub): > 600 µM
solubility at 2 h ([5]; read-out: Solubility_ug/mL): 155 µg/mL

c1ccc(OC2CCN(c3ccn[nH]3)CC2)cc1 [Compound 55, 4-Phenoxy-1-(1H-pyrazol-5-yl)piperidine]
HLM % inh. @ 250 nM [1]: 12.11%
RKM % inh. @ 250 nM [2]: 0.00%
inhibition at 0.25 µM [3]: 0%
RLM % inh. @ 250 nM [4]: 0.00%

Fc1ccccc1C1CCN(c2ccn[nH]2)CC1 [Compound 50, 4-(2-Fluorophenyl)-1-(1H-pyrazol-5-yl)piperidine]
HLM % inh. @ 500 nM [1]: 47.00%
RKM % inh. @ 500 nM [2]: 18.00%
inhibition at 0.5 µM [3]: 69%
RLM % inh. @ 500 nM [4]: 16.00%

Fc1ccc(C2CCN(c3cn[nH]c3)CC2)cc1 [Compound 17, 4-(4-Fluorophenyl)-1-(1H-pyrazol-4-yl)piperidine]
HLM % inh. @ 500 nM [1]: 80.00%
RKM % inh. @ 500 nM [2]: 25.00%
inhibition at 0.5 µM [3]: 83%
RLM % inh. @ 500 nM [4]: 57.00%

COc1ccc(N2CCN(c3cn[nH]c3)CC2)cc1 [Compound 6, 1-(4-Methoxyphenyl)-4-(1H-pyrazol-4-yl)piperazine]
HLM % inh. @ 500 nM [1]: 31.80%
RKM % inh. @ 500 nM [2]: 1.20%
inhibition at 0.5 µM [3]: 6.1%
RLM % inh. @ 500 nM [4]: 0.00%

CC(=O)N(C)c1ccc(C2CCN(c3ccn[nH]3)CC2)cc1 [Compound 27, N-(4-(1-(1H-Pyrazol-5-yl)piperidin-4-yl)phenyl)-N-methylacetamide]
HLM % inh. @ 500 nM [1]: 20.00%
RKM % inh. @ 500 nM [2]: 0.00%
inhibition at 0.5 µM [3]: 14%
RLM % inh. @ 500 nM [4]: 8.00%
solubility at 2 h ([5]; OD620, read-out: Max Solub): > 600 µM
solubility at 2 h ([5]; read-out: Solubility_ug/mL): 179 µg/mL

Fc1cccc(C2CCN(c3cn[nH]c3)CC2)c1 [Compound 49, 4-(3-Fluorophenyl)-1-(1H-pyrazol-4-yl)piperidine]
HLM % inh. @ 500 nM [1]: 80.00%
RKM % inh. @ 500 nM [2]: 28.00%
inhibition at 0.5 µM [3]: 90%
RLM % inh. @ 500 nM [4]: 31.00%

c1cnc(C2CCN(c3ccn[nH]3)CC2)nc1 [Compound 9, 2-(1-(1H-Pyrazol-5-yl)piperidin-4-yl)pyrimidine]
HLM % inh. @ 500 nM [1]: 0.00%
RKM % inh. @ 500 nM [2]: 0.00%
inhibition at 0.5 µM [3]: 0%
RLM % inh. @ 500 nM [4]: 0.00%

c1ccc(N2CCN(c3ccn[nH]3)CC2)cc1 [Compound 53, 1-Phenyl-4-(1H-pyrazol-5-yl)piperazine]
HLM % inh. @ 250 nM [1]: 14.90%
RKM % inh. @ 250 nM [2]: 8.20%
inhibition at 0.25 µM [3]: 3.9%
RLM % inh. @ 250 nM [4]: 4.30%

c1ccc(N2CCN(c3cn[nH]c3)CC2)cc1 [Compound 5, 1-Phenyl-4-(1H-pyrazol-4-yl)piperazine]
HLM % inh. @ 500 nM [1]: 24.50%
RKM % inh. @ 500 nM [2]: 0.00%
inhibition at 0.5 µM [3]: 2.6%
RLM % inh. @ 500 nM [4]: 0.00%

COc1cccc(CC2CCN(c3cn[nH]c3)CC2)c1 [Compound 45, 4-(3-Methoxybenzyl)-1-(1H-pyrazol-4-yl)piperidine]
HLM % inh. @ 500 nM [1]: 71.00%
RKM % inh. @ 500 nM [2]: 0.00%
inhibition at 0.5 µM [3]: 73%
RLM % inh. @ 500 nM [4]: 24.00%

O=S(=O)(c1ccccc1)C1CCN(c2ccn[nH]2)CC1 [Compound 41, 4-(Phenylsulfonyl)-1-(1H-pyrazol-5-yl)piperidine]
HLM % inh. @ 500 nM [1]: 32.00%
RKM % inh. @ 500 nM [2]: 0.00%
inhibition at 0.5 µM [3]: 0%
RLM % inh. @ 500 nM [4]: 0.00%
solubility at 2 h ([5]; OD620, read-out: Max Solub): 369 µM
solubility at 2 h ([5]; read-out: Solubility_ug/mL): 108 µg/mL

COC(=O)c1ccc(C2CCN(c3cn[nH]c3)CC2)cc1 [Compound 12, Methyl 4-(1-(1H-pyrazol-4-yl)piperidin-4-yl)benzoate]
HLM % inh. @ 500 nM [1]: 0.00%
RKM % inh. @ 500 nM [2]: 6.40%
inhibition at 0.5 µM [3]: 63.7%
RLM % inh. @ 500 nM [4]: 18.30%

COc1ccc(C2CCN(c3ccn[nH]3)CC2)c(F)c1 [Compound 46, 4-(2-Fluoro-4-methoxyphenyl)-1-(1H-pyrazol-5-yl)piperidine]
HLM % inh. @ 500 nM [1]: 78.00%
RKM % inh. @ 500 nM [2]: 0.00%
inhibition at 0.5 µM [3]: 88%
RLM % inh. @ 500 nM [4]: 47.00%

CC(=O)N(C)c1ccc(C2CCN(c3cn[nH]c3)CC2)cn1 [Compound 13, N-(5-(1-(1H-Pyrazol-4-yl)piperidin-4-yl)pyridin-2-yl)-N-methylacetamide]
HLM % inh. @ 500 nM [1]: 29.00%
RKM % inh. @ 500 nM [2]: 27.00%
inhibition at 0.5 µM [3]: 1%
RLM % inh. @ 500 nM [4]: 3.00%

COc1ccc(C2CCN(c3ccn[nH]3)CC2)cc1F [Compound 43, 4-(3-Fluoro-4-methoxyphenyl)-1-(1H-pyrazol-5-yl)piperidine]
HLM % inh. @ 500 nM [1]: 82.00%
RKM % inh. @ 500 nM [2]: 31.00%
inhibition at 0.5 µM [3]: 79%
RLM % inh. @ 500 nM [4]: 17.00%

Source: patent US12479816B2, “20-HETE formation inhibitors” (UNIVERSITY OF PITTSBURGH—OF THE COMMONWEALTH SYSTEM OF …, priority 2019, dated 2025)
